Data taken from US11759448B2, “Methods for the treatment of inflammation” (University of South Florida, priority 2020, dated 2023).

Tests used:
[1] = system: TNF-α; assay: tumor necrosis factor alpha (TNF-α) assay; type: cell-based; conditions: FIG. 1; y-axis TNF-α in picograms per milliliter, lower values mean lower inflammation in the cell
Description: (§1) The fractions isolated may be tested for activity against COX-2 or TNF-α using assays as would be known to those having skill in the art. Representative examples of such assays that could be used include a COX-2 inhibitory fluorometric assay or a TNF-α inhibitory fluorometric assay, each of which are commercially available from numerous suppliers.
(§2) The crude sample provided was dissolved in Ethyl acetate and dried down on Silica gel in a 1:3 ratio. Medium pressure chromatography was performed using a Teledyne-Isco combi-flash Torrent system. A 750 gram silica column was used with a Hexanes to Ethyl acetate gradient, which gave 11 fractions. Fraction A was then subjected to high pressure liquid chromatography on a preparative Silica NP column (250×20 mm), with a gradient between Hexanes to 20% ethyl acetate, which gave 4 fractions. The active fraction was further purified, with a gradient of Hexanes to 100% ethyl acetate on a preparative Silica NP column (250×20 mm), which gave 23 fractions. Fraction 17 was subjected to two rounds of NP hplc using an analytical Silica column (250×10 mm), which gave the final pure compound. An LC-20AD Shimadzu system and an SPD-20A UV detector was used for the hplc separations. All steps were guided using bioassay data from the COX-2 and TNF-α assays. […]

[2] = molecular target: T1, COX-2 (Homo sapiens, UniProt P35354); assay: COX-2 assay; type: biochemical; conditions: FIG. 2; compared to control diclofenac and dimethyl sulfoxide blank
T1 sequence (P35354 18-604): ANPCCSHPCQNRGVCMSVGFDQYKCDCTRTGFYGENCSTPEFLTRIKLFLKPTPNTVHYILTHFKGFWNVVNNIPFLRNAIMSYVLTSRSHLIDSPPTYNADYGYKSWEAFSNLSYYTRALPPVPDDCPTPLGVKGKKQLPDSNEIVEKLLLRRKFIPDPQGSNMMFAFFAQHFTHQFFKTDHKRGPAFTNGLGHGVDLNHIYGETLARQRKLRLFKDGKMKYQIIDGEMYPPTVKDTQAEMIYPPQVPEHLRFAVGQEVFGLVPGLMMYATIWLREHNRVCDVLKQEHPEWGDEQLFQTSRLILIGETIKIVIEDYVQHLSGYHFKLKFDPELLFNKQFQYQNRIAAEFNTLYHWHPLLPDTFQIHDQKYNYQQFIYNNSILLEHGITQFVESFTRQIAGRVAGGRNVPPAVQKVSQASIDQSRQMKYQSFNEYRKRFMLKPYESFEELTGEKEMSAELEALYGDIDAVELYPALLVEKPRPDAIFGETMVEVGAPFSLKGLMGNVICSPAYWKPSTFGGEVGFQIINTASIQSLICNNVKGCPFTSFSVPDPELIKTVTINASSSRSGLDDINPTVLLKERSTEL
Description: as §1, §2

inhibitory activity on COX-2 (level of prostaglandins in the sample) [2]: limited to no inhibitory activity
SMILES: C[C@@]12CCC[C@@H]3c4ccccc4[C@@H](C[C@@H]31)OC2=O [compound of formula (I)]
inhibitory activity of TNF-α (levels of TNF-α) [1]: inhibitory activity
